Laboratory results published in patent publication US8710065B2, “Tricyclic inhibitors of kinases” (AbbVie Inc., priority 2011, dated 2014).

The molecules below were run against T1, GST-tagged-Wee1 kinase (Homo sapiens, UniProt P30291) (assay: Wee1 time-resolved fluorescence equilibrium binding assay (displacement of Oregon Green-labeled ATP-competitive kinase probe)). Conditions: read-out: Wee-1 inhibition (Ki).
T1 construct: purchased Carnabio (Carna Biosciences) 05-177
How it was run: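 Time-resolved fluorescence equilibrium binding with GST-Wee1, measuring displacement of a rapidly reversible Oregon Green-labelled ATP-competitive probe by competitive inhibitors; values reported as Ki.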

T1 sequence (P30291 whole entry): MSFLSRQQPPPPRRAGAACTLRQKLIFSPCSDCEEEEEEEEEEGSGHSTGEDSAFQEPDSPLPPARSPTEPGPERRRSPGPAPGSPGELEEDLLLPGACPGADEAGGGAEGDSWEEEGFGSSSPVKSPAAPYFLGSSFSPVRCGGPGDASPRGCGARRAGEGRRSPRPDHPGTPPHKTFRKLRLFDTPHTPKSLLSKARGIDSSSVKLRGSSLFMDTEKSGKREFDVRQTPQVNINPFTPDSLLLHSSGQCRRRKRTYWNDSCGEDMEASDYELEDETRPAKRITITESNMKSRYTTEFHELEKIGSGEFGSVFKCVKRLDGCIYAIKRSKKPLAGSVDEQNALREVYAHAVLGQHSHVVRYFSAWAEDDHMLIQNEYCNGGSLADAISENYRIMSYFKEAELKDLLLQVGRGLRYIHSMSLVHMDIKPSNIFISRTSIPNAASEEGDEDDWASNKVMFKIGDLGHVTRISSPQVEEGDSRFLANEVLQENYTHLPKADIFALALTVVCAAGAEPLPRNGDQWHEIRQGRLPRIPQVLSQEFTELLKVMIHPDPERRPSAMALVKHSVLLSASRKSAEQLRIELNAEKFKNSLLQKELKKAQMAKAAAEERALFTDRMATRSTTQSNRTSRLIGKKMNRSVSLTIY

Structure (SMILES) | Ki [nM]
O=c1c2cnc(Nc3ccc(N4CCC(F)(F)CC4)cc3)nc2n2ccnc2n1-c1c(Cl)cccc1Cl [Example 153, 6-(2,6-dichlorophenyl)-2-{[4-(4,4-difluoropiperidin-1-yl)phenyl]amino}imidazo[1,2-a]pyrimido[5,4-e]pyrimidin-5(6H)-one] | < 10
O=C(C1CCCC1)N1Cc2cc(Nc3ncc4c(=O)n(-c5c(F)cccc5Cl)c5nccn5c4n3)ccc2C2(CC2)C1 [Example 267, 6-(2-chloro-6-fluorophenyl)-2-{[2′-(cyclopentylcarbonyl)-2′,3′-dihydro-1′H-spiro[cyclopropane-1,4′-isoquinolin]-7′-yl]amino}imidazo[1,2-a]pyrimido[5,4-e]pyrimidin-5(6H)-one] | < 10
O=c1c2cnc(Nc3ccc4c(c3)CNCC43CC3)nc2n2ccnc2n1-c1ccccc1Cl [Example 90, 6-(2-chlorophenyl)-2-(2′,3′-dihydro-1′H-spiro[cyclopropane-1,4′-isoquinolin]-7′-ylamino)imidazo[1,2-a]pyrimido[5,4-e]pyrimidin-5(6H)-one] | < 10
CN(CCOC(=O)c1ccc(Nc2ncc3c(=O)n(-c4c(Cl)cccc4Cl)c4nccn4c3n2)cc1)C1CC1 [Example 201, 2-[cyclopropyl(methyl)amino]ethyl 4-{[6-(2,6-dichlorophenyl)-5-oxo-5,6-dihydroimidazo[1,2-a]pyrimido[5,4-e]pyrimidin-2-yl]amino}benzoate] | < 10
CNc1nc(C)c(-c2ccc(Nc3ncc4c(=O)n(-c5c(Cl)cccc5Cl)c5nccn5c4n3)cc2)s1 [Example 197, 6-(2,6-dichlorophenyl)-2-({4-[4-methyl-2-(methylamino)-1,3-thiazol-5-yl]phenyl}amino)imidazo[1,2-a]pyrimido[5,4-e]pyrimidin-5(6H)-one] | < 10
O=c1c2cnc(Nc3ccc(N4C[C@@H]5C[C@H]4CN5)cc3)nc2n2ccnc2n1-c1c(Cl)cccc1Cl [Example 151, 2-({4-[(1S,45)-2,5-diazabicyclo[2.2.1]hept-2-yl]phenyl}amino)-6-(2,6-dichlorophenyl)imidazo[1,2-a]pyrimido[5,4-e]pyrimidin-5(6H)-one] | < 10
CN1Cc2cc(Nc3ncc4c(=O)n(-c5ccccc5Cl)c5nccn5c4n3)ccc2C1(C)C [Example 146, 6-(2-chlorophenyl)-2-[(1,1,2-trimethyl-2,3-dihydro-1H-isoindol-5-yl)amino]imidazo[1,2-a]pyrimido[5,4-e]pyrimidin-5(6H)-one] | < 10
CC(C)(C)C(=O)N1Cc2cc(Nc3ncc4c(=O)n(-c5c(F)cccc5Cl)c5nccn5c4n3)ccc2C2(CC2)C1 [Example 266, 6-(2-chloro-6-fluorophenyl)-2-{[2′-(2,2-dimethylpropanoyl)-2′,3′-dihydro-1′H-spiro[cyclopropane-1,4′-isoquinolin]-7′-yl]amino}imidazo[1,2-a]pyrimido[5,4-e]pyrimidin-5(6H)-one] | < 10
CC(C)C(=O)N1Cc2cc(Nc3ncc4c(=O)n(-c5c(F)cccc5Cl)c5nccn5c4n3)ccc2C2(CC2)C1 [Example 265, 6-(2-chloro-6-fluorophenyl)-2-{[2′-(2-methylpropanoyl)-2′,3′-dihydro-1′H-spiro[cyclopropane-1,4′-isoquinolin]-7′-yl]amino}imidazo[1,2-a]pyrimido[5,4-e]pyrimidin-5(6H)-one] | < 10
CN1CCN(c2ccc(Nc3ncc4c(=S)n(-c5ccccc5Cl)c5nccn5c4n3)cc2)CC1 [Example 332, 6-(2-chlorophenyl)-2-{[4-(4-methylpiperazin-1-yl)phenyl]amino}imidazo[1,2-a]pyrimido[5,4-e]pyrimidine-5(6H)-thione] | < 10
O=C(N[C@H]1CC[C@H](O)CC1)c1ccc(Nc2ncc3c(=O)n(-c4ccccc4Cl)c4nccn4c3n2)cc1 [Example 46, 4-{[6-(2-chlorophenyl)-5-oxo-5,6-dihydroimidazo[1,2-a]pyrimido[5,4-e]pyrimidin-2-yl]amino}-N-(trans-4-hydroxycyclohexyl)benzamide] | 10 to 100
O=c1c2cnc(Nc3ccc(-c4cscn4)cc3)nc2n2ccnc2n1-c1ccccc1Cl [Example 349, 6-(2-chlorophenyl)-2-{[4-(1,3-thiazol-4-yl)phenyl]amino}imidazo[1,2-a]pyrimido[5,4-e]pyrimidin-5(6H)-one] | 10 to 100
O=c1c2cnc(Nc3ccccc3)nc2n2ccnc2n1-c1cccc(O)c1 [Example 68, 6-(3-hydroxyphenyl)-2-(phenylamino)imidazo[1,2-a]pyrimido[5,4-e]pyrimidin-5(6H)-one] | 10 to 100
COc1cc(N2CCN(C)CC2)ccc1Nc1ncc2c(=O)n(-c3ccccc3Cl)c3nccn3c2n1 [Example 17, 6-(2-chlorophenyl)-2-{[2-methoxy-4-(4-methylpiperazin-1-yl)phenyl]amino}imidazo[1,2-a]pyrimido[5,4-e]pyrimidin-5(6H)-one] | > 100
O=c1c2cnc(Nc3ccc(-c4nccs4)cc3)nc2n2ccnc2n1-c1ccccc1Cl [Example 350, 6-(2-chlorophenyl)-2-{[4-(1,3-thiazol-2-yl)phenyl]amino}imidazo[1,2-a]pyrimido[5,4-e]pyrimidin-5(6H)-one] | 10 to 100
CC(=O)N1Cc2cc(Nc3ncc4c(=O)n(-c5ccccc5Cl)c5nccn5c4n3)ccc2C2(CC2)C1 [Example 91, 2-[(2′-acetyl-2′,3′-dihydro-1′H-spiro[cyclopropane-1,4′-isoquinolin]-7′-yl)amino]-6-(2-chlorophenyl)imidazo[1,2-a]pyrimido[5,4-e]pyrimidin-5(6H)-one] | < 10
Cc1cccc(C)c1-n1c(=O)c2cnc(Nc3ccc4c(c3)CN(C)CC43CC3)nc2n2ccnc12 [Example 62, 6-(2,6-dimethylphenyl)-2-[(2′-methyl-2′,3′-dihydro-1′H-spiro[cyclopropane-1,4′-isoquinolin]-7′-yl)amino]imidazo[1,2-a]pyrimido[5,4-e]pyrimidin-5(6H)-one] | < 10
O=c1c2cnc(Nc3ccc(C4CCCN4)cc3)nc2n2ccnc2n1-c1ccccc1Cl (stereo not drawn) [Example 71, 6-(2-chlorophenyl)-2-{[4-(pyrrolidin-2-yl)phenyl]amino}imidazo[1,2-a]pyrimido[5,4-e]pyrimidin-5(6H)-one] | < 10
C=CCn1c(=O)c2cnc(Nc3ccc(N4CCN(C)CC4)cc3)nc2n2ccnc12 [Example 23, 6-allyl-2-{[4-(4-methylpiperazin-1-yl)phenyl]amino}imidazo[1,2-a]pyrimido[5,4-e]pyrimidin-5(6H)-one] | > 100
CN1Cc2cc(Nc3ncc4c(=O)n(-c5c(F)cc(F)cc5Cl)c5nccn5c4n3)ccc2C(C)(C)C1 [Example 187, 6-(2-chloro-4,6-difluorophenyl)-2-[(2,4,4-trimethyl-1,2,3,4-tetrahydroisoquinolin-7-yl)amino]imidazo[1,2-a]pyrimido[5,4-e]pyrimidin-5(6H)-one] | < 10
N#Cc1cccc(CN2CCN(c3ccc(Nc4ncc5c(=O)n(-c6ccccc6Cl)c6nccn6c5n4)cc3)CC2)c1 [Example 31, 3-{[4-(4-{[6-(2-chlorophenyl)-5-oxo-5,6-dihydroimidazo[1,2-a]pyrimido[5,4-e]pyrimidin-2-yl]amino}phenyl)piperazin-1-yl]methyl}benzonitrile] | 10 to 100
O=c1c2cnc(Nc3cccc(OCCCN4CCCCC4)c3)nc2n2ccnc2n1-c1ccccc1Cl [Example 83, 6-(2-chlorophenyl)-2-({3-[3-(piperidin-1-yl)propoxy]phenyl}amino)imidazo[1,2-a]pyrimido[5,4-e]pyrimidin-5(6H)-one] | 10 to 100
CCN1C[C@H]2C[C@@H](C1)CN(C(=O)c1ccc(Nc3ncc4c(=O)n(-c5c(Cl)cccc5Cl)c5nccn5c4n3)cc1)C2 [Example 202, 6-(2,6-dichlorophenyl)-2-[(4-{[(1R,5S)-7-ethyl-3,7-diazabicyclo[3.3.1]non-3-yl]carbonyl}phenyl)amino]imidazo[1,2-a]pyrimido[5,4-e]pyrimidin-5(6H)-one] | < 10
CN1Cc2cc(Nc3ncc4c(=O)n(-c5c(F)cccc5Cl)c5nccn5c4n3)ccc2C1(C)C [Example 209, 6-(2-chloro-6-fluorophenyl)-2-[(1,1,2-trimethyl-2,3-dihydro-1H-isoindol-5-yl)amino]imidazo[1,2-a]pyrimido[5,4-e]pyrimidin-5(6H)-one] | < 10
CN1CCN(c2c(Cl)cc(Nc3ncc4c(=O)n(-c5ccccc5Cl)c5nccn5c4n3)cc2C(F)(F)F)CC1 [Example 353, 2-{[3-chloro-4-(4-methylpiperazin-1-yl)-5-(trifluoromethyl)phenyl]amino}-6-(2-chlorophenyl)imidazo[1,2-a]pyrimido[5,4-e]pyrimidin-5(6H)-one] | > 100
COc1ccccc1-n1c(=O)c2cnc(Nc3ccc(N4CCN(C)CC4)cc3)nc2n2ccnc12 [Example 16, 6-(2-methoxyphenyl)-2-{[4-(4-methylpiperazin-1-yl)phenyl]amino}imidazo[1,2-a]pyrimido[5,4-e]pyrimidin-5(6H)-one] | 10 to 100
O=c1c2cnc(Nc3ccc(Cn4cccn4)cc3)nc2n2ccnc2n1-c1ccccc1Cl [Example 88, 6-(2-chlorophenyl)-2-{[4-(1H-pyrazol-1-ylmethyl)phenyl]amino}imidazo[1,2-a]pyrimido[5,4-e]pyrimidin-5(6H)-one] | < 10
COc1cc(Nc2ncc3c(=O)n(-c4ccccc4Cl)c4nccn4c3n2)ccc1OCCNC(C)C [Example 85, 6-(2-chlorophenyl)-2-({3-methoxy-4-[2-(propan-2-ylamino)ethoxy]phenyl}amino)imidazo[1,2-a]pyrimido[5,4-e]pyrimidin-5(6H)-one] | < 10
O=c1c2cnc(Nc3ccc(N4CCN5CCC[C@@H]5C4)cc3)nc2n2ccnc2n1-c1ccccc1Cl [Example 204, 6-(2-chlorophenyl)-2-({4-[(8aR)-hexahydropyrrolo[1,2-a]pyrazin-2(1H)-yl]phenyl}amino)imidazo[1,2-a]pyrimido[5,4-e]pyrimidin-5(6H)-one] | < 10
O=c1c2cnc(Nc3ccc(N4CCN5CCCC5C4)cc3)nc2n2ccnc2n1-c1ccccc1Cl (stereo not drawn) [Example 101, 6-(2-chlorophenyl)-2-{[4-(hexahydropyrrolo[1,2-a]pyrazin-2(1H)-yl)phenyl]amino}imidazo[1,2-a]pyrimido[5,4-e]pyrimidin-5(6H)-one] | < 10
